Reference: patent publication US9981963B2, “3-(1H-pyrazol-4-yl)-1H-pyrrolo[2,3-c]pyridine derivatives as NIK inhibitors” (Janssen Pharmaceutica NV, priority 2013, dated 2018)

How the values were obtained:
[1] = target: T1, Recombinant Human NF-kappaB-inducing Kinase (NIK/MAP3K14) (Homo sapiens (Human), UniProt Q99558); assay: Biological Assay A: inhibition of recombinant human NIK/MAP3K14 activity (MSD, MBP substrate); settings: 25 μM ATP, 10 nM NIK/MAP3K14, 1 h at 25° C.; averaged over all measurements on all batches; read-out: Biochemical (MSD MBP) IC50
Experimental: Inhibition of Recombinant Human NF-kappaB-inducing Kinase (NIK/MAP3K14) Activity
Assay buffer was 50 mM Tris pH 7.5 containing 1 mM EGTA (ethylene glycol tetraacetic acid), 1 mM DTT (dithiothreitol), 0.1 mM Na3VO4, 5 mM MgCl2, 0.01% Tween® 20. Assays were carried out in 384 well Mesoscale high binding plates which had been coated with myelin basic protein (MBP) and blocked with bovine serum albumin to prevent non-specific protein binding. All compounds tested were dissolved in dimethyl sulfoxide (DMSO) and further dilutions were made in assay buffer. Final DMSO concentration was 1% (v/v) in assays. Incubations consisted of compound (1% DMSO in control and blank wells), 25 μM Adenosine-5′-triphosphate (ATP), and 10 nM NIK/MAP3K14 substituting enzyme with buffer in the blank wells. Incubations were carried out for 1 h at 25° C. and were followed by washing and sequential incubation with rabbit anti-phospho-MBP and anti-rabbit Ig Sulfotag antibody before reading bound Sulfotag on a Mesoscale Discovery. Signal obtained in the wells containing blank samples was subtracted from all other wells and IC50's were determined by fitting a sigmoidal curve to % inhibition of control versus Log10 compound concentration.

[2] = target: T1, Recombinant Human NF-kappaB-inducing Kinase (NIK/MAP3K14); assay: Biological Assay A2: inhibition of auto-phosphorylation of recombinant human NIK/MAP3K14 (AlphaScreen); format: biochemical; settings: 25 microM ATP, 0.2 nM GST-tagged NIK/MAP3K14, 1 h at 25° C., averaged values, read-out: Alpha-Screen IC50
Experimental: Inhibition of Auto-phosphorylation of Recombinant Human NF-kappaB-inducing Kinase (NIK/MAP3K14) Activity (AlphaScreen®)
NIK/MAP3K14 auto-phosphorylation activity was measured using the AlphaScreen® (αscreen) format (Perkin Elmer). All compounds tested were dissolved in dimethyl sulfoxide (DMSO) and further dilutions were made in assay buffer. Final DMSO concentration was 1% (v/v) in assays. Assay buffer was 50 mM Tris pH 7.5 containing 1 mM EGTA (ethylene glycol tetraacetic acid), 1 mM DTT (dithiothreitol), 0.1 mM Na3VO4, 5 mM MgCl2, 0.01% Tween® 20. Assays were carried out in 384 well Alphaplates (Perkin Elmer). Incubations consisted of compound, 25 microM Adenosine-5′-triphosphate (ATP), and 0.2 nM NIK/MAP3K14. Incubations were initiated by addition of GST-tagged NIK/MAP3K14 enzyme, carried out for 1 h at 25° C. and terminated by addition of stop buffer containing anti-phospho-IKK Ser176/180 antibody. Protein A Acceptor and Glutathione-Donor beads were added before reading using an EnVision® Multilabel Plate Reader (Perkin Elmer). Signal obtained in the wells containing blank samples was subtracted from all other wells and IC50's were determined by fitting a sigmoidal curve to % inhibition of control versus Log10 compound concentration.

[3] = system: P-IKKα levels in L363 cells; assay: Biological Assay B: effect of compounds on P-IKKα levels in L363 cells; format: cell-based; settings: Homo sapiens, L-363; L363 cells with BAFF, 2 hr treatment; averaged values; read-out: IKKα Cellular IC50
Experimental: Effect of Compounds on P-IKKα Levels in L363 Cells
All compounds tested were dissolved in DMSO and further dilutions were made in culture medium. Final DMSO concentration was 1% (v/v) in cell assays. The human L363 cells (ATCC) were cultured in RPMI 1640 medium supplemented with GlutaMax and 10% fetal calf serum (PAA). Cells were routinely maintained at densities of 0.2×10^6 cells per ml-1×10^6 cells per ml at 37° C. in a humidified 5% CO2 atmosphere. Cells were passaged twice a week splitting back to obtain the low density. Cells were seeded in 96 well plates (Nunc 167008) at 2×10^6 per ml media in a volume of 75 μl per well plus 25 μl 1 μg/ml recombinant human B-cell activating factor (BAFF/BLyS/TNFSF13B). Seeded cells were incubated at 37° C. in a humidified 5% CO2 atmosphere for 24 hr. Drugs and/or solvents were added (20 μl) to a final volume of 120 μl. Following 2 hr treatment plates were removed from the incubator and cell lysis was achieved by the addition of 30 μl 5× lysis buffer followed by shaking on a plate shaker at 4° C. for 10 min. At the end of this incubation lysed cells were centrifuged at 800×g for 20 min at 4° C. and the lysate was assessed for P-IKKα levels by sandwich immuno-assay carried out in anti-rabbit antibody coated Mesoscale plates. Within an experiment, the results for each treatment were the mean of 2 replicate wells. For initial screening purposes, compounds were tested using an 8 point dilution curve (serial 1:3 dilutions). For each experiment, controls (containing MG132 and BAFF but no test drug) and a blank incubation (containing MG132 and BAFF and 10 μM ADS125117, a test concentration known to give full inhibition) were run in parallel. The blank incubation value was subtracted from all control and sample values. To determine the IC50 a sigmoidal curve was fitted to the plot of % inhibition of control P-IKKα levels versus Log10 compound concentration.

JJN-3 cells = assay: Biological Assay C: antiproliferative activity on JJN-3 cells (CellTiter-Glo); format: cell-based; settings: Homo sapiens, 72 hr of treatment, averaged values
Experimental: (§1) Determination of Antiproliferative Activity on LP-1, L-363 and JJN-3 Cells
(§2) All compounds tested were dissolved in DMSO and further dilutions were made in culture medium. Final DMSO concentration was 0.3% (v/v) in cell proliferation assays. Viability was assessed using CellTiter-Glo cell viability assay kit (Promega). The human LP-1, L-363 and JJN-3 cells (DSMZ) were cultured in RPMI 1640 medium supplemented with 2 mM L-glutamine, and 10% fetal calf serum (PAA). Cells were routinely kept as suspension cells at 37° C. in a humidified 5% CO2 atmosphere. Cells were passaged at a seeding density of 0.2×10^6/ml twice a week. Cells were seeded in black tissue culture treated 96-well plates (Perkin Elmer). Densities used for plating ranged from 2,000 to 6,000 cells per well in a total volume of 75 μl medium. After twenty four hours, drugs and/or solvents were added (25 μl) to a final volume of 100 μl. Following 72 hr of treatment plates were removed from the incubator and allowed to equilibrate to room temperature for approx 10 min. 100 μl CellTiter-Glo reagent was added to each well that was then covered (Perkin Elmer Topseal) and shaken on plate shaker for 10 min. Luminescence was measured on a HTS Topcount (Perkin Elmer). Within an experiment, the results for each treatment were the mean of 2 replicate wells. For initial screening purposes, compounds were tested using a 9 point dilution curve (serial 1:3 dilutions). For each experiment, controls (containing no drug) and a blank incubation (containing cells read at the time of compound addition) were run in parallel. The blank value was subtracted from all control and sample values. For each sample, the mean value for cell growth (in relative light units) was expressed as a percentage of the mean value for cell growth of the control.

L-363 cells = assay: Biological Assay C: antiproliferative activity on L-363 cells (CellTiter-Glo); format: cell-based; settings: Homo sapiens, 72 hr of treatment, averaged values
Experimental: as §1, §2

LP-1 cells = assay: Biological Assay C: antiproliferative activity on LP-1 cells (CellTiter-Glo); format: cell-based; settings: Homo sapiens, 72 hr of treatment, averaged values
Experimental: as §1, §2

T1 sequence (Q99558 whole entry): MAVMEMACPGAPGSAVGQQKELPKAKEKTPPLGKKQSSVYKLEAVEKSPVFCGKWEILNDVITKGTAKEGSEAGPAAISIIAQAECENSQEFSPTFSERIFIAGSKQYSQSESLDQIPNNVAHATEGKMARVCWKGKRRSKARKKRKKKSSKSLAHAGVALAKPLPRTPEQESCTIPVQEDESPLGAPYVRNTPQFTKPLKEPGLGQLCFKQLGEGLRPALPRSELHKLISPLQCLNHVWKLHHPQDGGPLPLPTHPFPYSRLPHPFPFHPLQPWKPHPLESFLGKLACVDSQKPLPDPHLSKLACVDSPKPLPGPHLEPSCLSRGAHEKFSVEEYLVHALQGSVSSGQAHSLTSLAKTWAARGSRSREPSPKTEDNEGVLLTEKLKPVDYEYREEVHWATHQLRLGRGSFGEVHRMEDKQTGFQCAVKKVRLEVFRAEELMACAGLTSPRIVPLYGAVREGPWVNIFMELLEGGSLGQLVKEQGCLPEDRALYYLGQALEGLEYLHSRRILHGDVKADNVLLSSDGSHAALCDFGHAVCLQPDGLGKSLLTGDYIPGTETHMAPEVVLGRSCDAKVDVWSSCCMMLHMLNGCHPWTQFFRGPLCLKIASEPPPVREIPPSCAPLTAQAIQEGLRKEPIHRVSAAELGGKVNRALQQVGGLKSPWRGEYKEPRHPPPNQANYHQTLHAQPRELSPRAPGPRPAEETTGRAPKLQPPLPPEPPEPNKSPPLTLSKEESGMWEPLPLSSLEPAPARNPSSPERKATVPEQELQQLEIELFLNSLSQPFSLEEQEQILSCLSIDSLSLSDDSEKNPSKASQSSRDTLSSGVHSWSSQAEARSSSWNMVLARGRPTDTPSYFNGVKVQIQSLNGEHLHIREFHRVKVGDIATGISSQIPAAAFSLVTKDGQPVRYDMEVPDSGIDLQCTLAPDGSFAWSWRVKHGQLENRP

| Structure (SMILES) | IC50 [1] [nM] | IC50 [2] [nM] | IC50 [3] [nM] | EC50 (JJN-3 cells) [nM] | EC50 (L-363 cells) [nM] | EC50 (LP-1 cells) [nM] |
| --- | --- | --- | --- | --- | --- | --- |
| CC(C)(O)C#Cc1cc2c(-c3cn[nH]c3)cn(CCC(C)(C)O)c2cn1 [Compound 20] | 29 | 30 | 187 | 2650 | 2260 | > 30000 |
| CC(C)(O)C#Cc1cc2c(-c3cn[nH]c3)cn(CCO)c2cn1 [Compound 12] | 47 | 22 | 185 | 1500 | 2450 | 8500 |
| CC(C)(O)C#Cc1cc2c(-c3cn[nH]c3)cn(CCCO)c2cn1 [Compound 5] | 16 | 14 | 71 | 1200 | 791 | 18800 |
| OCCn1cc(-c2cn[nH]c2)c2cc(C#CC3(O)CCCC3)ncc21 [Compound 13] | 14 | 17 | 242 | 23800 | 11000 | > 30000 |
| CN1CC(n2cc(-c3cn[nH]c3)c3cc(C#CC(C)(C)O)ncc32)C1 [Compound 34] | 76 | 171 | 377 | 3660 | 2200 | > 30000 |
| Cn1cc(-c2cn[nH]c2)c2cc(C#CC(C)(C)O)ncc21 [Compound 4] | 28 | 11 | 210 | 1150 | 1030 | 4720 |
| COCCCn1cc(-c2cn[nH]c2)c2cc(C#CC(C)(C)O)ncc21 [Compound 18] | 45 | 41 | 167 | 1870 | 2540 | 6820 |
| CC(C)n1cc(-c2cn[nH]c2)c2cc(C#CC(C)(C)O)ncc21 [Compound 11] | 6 | 21 | 20 | 258 | 283 | 916 |
| CC(C)(O)C#Cc1cc2c(-c3cn[nH]c3)cn(CC(C)(C)O)c2cn1 [Compound 14] | 18 | 108 | 132 | 1400 | 1330 | 12100 |
| CC(C)(O)Cn1cc(-c2cn[nH]c2)c2cc(C#CC(C)(O)c3nccs3)ncc21 (stereo not drawn) [Compound 15] | 10 | 43 | 47 | 3850 | > 30000 | > 30000 |
| CCn1cc(-c2c[nH]nc2N)c2cc(C#CC(C)(C)O)ncc21 [Compound 3] | 58 | 28 | 173 | 2370 | 4040 | 7240 |
